In brackets after ≈: the same amount, converted by molar mass. No end group written: not given here.
Legend:
[1] = tested on: Stapholococcus aureus ATCC 25923; test: Antimicrobial assay I, modified protocol (tryptic soy broth), MBC; conditions: minimum bactericidal concentration, Table 4
Method: (§1) The preparation of all media, stock solutions, and dilutions took place in a laminar flow hood to prevent contamination. Bacterial cells were freshly grown on antibiotic medium 2 agar slants (pH 7.0 at 25° C.). Bacteria were suspended and diluted in antibiotic medium 3 to about 10^4 cfu/ml and used as the inoculum. Sample solutions (100 μl/well) were added to plates according to the plate layout. Inoculum (100 μl/well) was added to achieve a final concentration of 5×10^3 cfu/ml. Negative controls received 100 μl saline and 100 μl growth medium. Positive controls received 100 μl saline and 100 μl inoculum. Bacterial plates were incubated at 37° C. for 24 hours.
(§2) However, the data for Table 4 were obtained with a modified protocol wherein the medium was tryptic soy broth, inocolum strength was approximately 10^4 CFU per ml, and values determined were minimum bactericidal concentrations (MBC) or minimum fungicidal concentrations (MFC).
(§3) MBC or MFC values are in μg/mL. E. coli is Escherichia coli ATCC accession number 25922; P. aerug is Pseudomonas aeruginosa ATCC accession number 27853, S. aur. is Stapholococcus aureus ATCC accession number 25923; Candida is Candida albicans ATCC accession number 10231.

[2] = tested on: Candida albicans ATCC 10231; test: Antimicrobial assay I, modified protocol (tryptic soy broth), MFC; conditions: minimum fungicidal concentration, Table 4
Method: as §1, §2, §3

[3] = tested on: Escherichia coli ATCC 25922; test: Antimicrobial assay I, modified protocol (tryptic soy broth), MBC; conditions: minimum bactericidal concentration, Table 4
Method: as §1, §2, §3

[4] = tested on: Pseudomonas aeruginosa ATCC 27853; test: as above; conditions: minimum bactericidal concentration, Table 4

| Compound | MBC S. aur A.25923 [1] | MFC Candida A.10231 [2] | MBC E. coli A.25922 [3] | MBC P. aerug A.27853 [4] |
| --- | --- | --- | --- | --- |
| CC(C)C[C@H](NC(=O)[C@H](CCCCN)NC(=O)[C@H](CCCCN)NC(=O)[C@H](Cc1c[nH]c2ccccc12)NC(=O)[C@@H](N)CCCCN)C(=O)N[C@@H](C)C(=O)N[C@@H](CCCCN)C(=O)N[C@@H](CCCCN)C(=O)N[C@@H](Cc1c[nH]c2ccccc12)C(=O)O [compound 162] | >250 µg/mL | 100 µg/mL (≈ 82.3 µM) | 50 µg/mL (≈ 41.1 µM) | >250 µg/mL |
| CC(C)C[C@H](NC(=O)[C@H](CC(C)C)NC(=O)[C@H](CCCCN)NC(=O)[C@H](CC(C)C)NC(=O)[C@H](CC(C)C)NC(=O)[C@H](CCCCN)NC(=O)[C@H](CCCCN)NC(=O)[C@H](Cc1ccc(O)cc1)NC(=O)[C@H](CC(C)C)NC(=O)[C@H](CCCCN)NC(=O)[C@H](CC(C)C)NC(=O)[C@H](CC(C)C)NC(=O)[C@H](CC(C)C)NC(=O)[C@H](CCCCN)NC(=O)[C@H](CC(C)C)NC(=O)[C@H](CC(C)C)NC(=O)[C@@H](N)CCCCN)C(=O)O [compound 156] | >250 µg/mL | >250 µg/mL | 100 µg/mL (≈ 48 µM) | >250 µg/mL |
| KWKLAKKALALL-NH2 [compound 142] | INACT | INACT | INACT | INACT |
| FAKLLAKLAKKSL-NH2 [compound 127] | INACT | INACT | INACT | INACT |
| CC(C)C[C@H](NC(=O)[C@H](CC(C)C)NC(=O)[C@H](CCCCN)NC(=O)[C@H](CCCCN)NC(=O)[C@H](C)NC(=O)[C@H](C)NC(=O)[C@H](CC(C)C)NC(=O)[C@H](CCCCN)NC(=O)[C@H](CC(C)C)NC(=O)[C@H](CC(C)C)NC(=O)[C@H](CCCCN)NC(=O)[C@H](C)NC(=O)[C@@H](N)Cc1ccccc1)C(N)=O [compound 56] | 55 µg/mL (≈ 37.8 µM) | 30 µg/mL (≈ 20.6 µM) | 50 µg/mL (≈ 34.3 µM) | 10 µg/mL (≈ 6.87 µM) |
| CC(C)C[C@H](NC(=O)[C@H](C)NC(=O)[C@H](CCCCN)NC(=O)[C@H](CCCCN)NC(=O)[C@H](CC(C)C)NC(=O)[C@H](C)NC(=O)[C@H](CCCCN)NC(=O)[C@H](C)NC(=O)[C@H](CC(C)C)NC(=O)[C@H](C)NC(=O)[C@@H](N)Cc1ccccc1)C(N)=O [compound 166] | >250 µg/mL | >250 µg/mL | >250 µg/mL | >250 µg/mL |
| CC(C)C[C@H](NC(=O)[C@H](CC(C)C)NC(=O)[C@H](CCCCN)NC(=O)[C@H](C)NC(=O)[C@H](CC(C)C)NC(=O)[C@H](C)NC(=O)[C@H](CCCCN)NC(=O)[C@H](CCCCN)NC(=O)[C@H](C)NC(=O)[C@H](CC(C)C)NC(=O)[C@H](CCCCN)NC(=O)[C@H](C)NC(=O)[C@@H](N)Cc1ccccc1)C(N)=O [compound 148] | >250 µg/mL | 100 µg/mL (≈ 70.7 µM) | 150 µg/mL (≈ 106 µM) | >250 µg/mL |
| CC(C)C[C@H](NC(=O)[C@H](CC(C)C)NC(=O)[C@H](CCCCN)NC(=O)[C@H](C)NC(=O)[C@H](CC(C)C)NC(=O)[C@H](C)NC(=O)[C@H](CCCCN)NC(=O)[C@H](CCCCN)NC(=O)[C@H](C)NC(=O)[C@H](CC(C)C)NC(=O)[C@H](CCCCN)NC(=O)[C@H](C)NC(=O)[C@@H](N)CCCCN)C(N)=O [compound 149] | >250 µg/mL | 100 µg/mL (≈ 71.7 µM) | 150 µg/mL (≈ 108 µM) | >250 µg/mL |
| CC(C)C[C@H](NC(=O)[C@H](CCCCN)NC(=O)[C@H](CC(C)C)NC(=O)[C@H](Cc1c[nH]c2ccccc12)NC(=O)[C@H](CCCCN)NC(=O)[C@H](CCCCN)NC(=O)[C@H](C)NC(=O)[C@H](Cc1c[nH]c2ccccc12)NC(=O)[C@H](CCCCN)NC(=O)[C@H](CCCCN)NC(=O)[C@H](Cc1c[nH]c2ccccc12)NC(=O)[C@H](CC(C)C)NC(=O)[C@@H](N)CCCCN)C(=O)N[C@@H](Cc1c[nH]c2ccccc12)C(=O)N[C@@H](CCCCN)C(=O)N[C@@H](C)C(=O)N[C@@H](Cc1c[nH]c2ccccc12)C(N)=O [compound 163] | 25 µg/mL (≈ 10.7 µM) | 25 µg/mL (≈ 10.7 µM) | 25 µg/mL (≈ 10.7 µM) | 50 µg/mL (≈ 21.5 µM) |
| FAKLF-NH2 [compound 129] | INACT | INACT | INACT | INACT |
| CC(C)C[C@H](NC(=O)[C@H](CCCCN)NC(=O)[C@H](CC(C)C)NC(=O)[C@H](CCCCN)NC(=O)[C@H](CC(C)C)NC(=O)[C@H](C)NC(=O)[C@H](CCCCN)NC(=O)[C@H](C)NC(=O)[C@H](CC(C)C)NC(=O)[C@H](CC(C)C)NC(=O)[C@H](CCCCN)NC(=O)[C@H](C)NC(=O)[C@@H](N)Cc1ccccc1)C(N)=O [compound 101] | >50 µg/mL | 40 µg/mL (≈ 27.5 µM) | 300 µg/mL (≈ 206 µM) | >50 µg/mL |
| CC(C)C[C@H](NC(=O)[C@H](C)NC(=O)[C@@H](N)Cc1ccccc1)C(=O)N[C@@H](C)C(=O)N[C@@H](CC(C)C)C(=O)N[C@@H](CCCCN)C(=O)N[C@@H](C)C(=O)N[C@@H](CC(C)C)C(=O)N[C@@H](CCCCN)C(=O)N[C@@H](CCCCN)C(N)=O [compound 169] | >250 µg/mL | 75 µg/mL (≈ 68.1 µM) | 200 µg/mL (≈ 182 µM) | >250 µg/mL |
| CC(C)C[C@H](NC(=O)[C@H](CC(C)C)NC(=O)[C@H](CCCCN)NC(=O)[C@H](CCCCN)NC(=O)[C@H](C)NC(=O)[C@H](CC(C)C)NC(=O)[C@H](CC(C)C)NC(=O)[C@H](CCCCN)NC(=O)[C@H](C)NC(=O)[C@@H](N)Cc1ccccc1)C(N)=O [compound 57] | >50 µg/mL | >50 µg/mL | >50 µg/mL | >50 µg/mL |
| CC(C)C[C@H](NC(=O)[C@H](CCCCN)NC(=O)[C@H](CCCCN)NC(=O)[C@H](Cc1c[nH]c2ccccc12)NC(=O)[C@@H](N)CCCCN)C(=O)N[C@@H](C)C(=O)N[C@@H](CCCCN)C(=O)N[C@@H](CCCCN)C(=O)N[C@@H](Cc1c[nH]c2ccccc12)C(N)=O [compound 161] | >250 µg/mL | 25 µg/mL (≈ 20.6 µM) | 150 µg/mL (≈ 124 µM) | >250 µg/mL |
| FAKLLFKALKKAL-NH2 [compound 112] | INACT | INACT | 30 µg/mL | INACT |
| FAKIIAKIAKIAKKIL-NH2 [compound 139] | INACT | INACT | INACT | INACT |
| CC(C)C[C@H](NC(=O)[C@H](CCCCN)NC(=O)[C@H](C)NC(=O)[C@H](CC(C)C)NC(=O)[C@H](CC(C)C)NC(=O)[C@H](CCCCN)NC(=O)[C@H](C)NC(=O)[C@@H](N)Cc1ccccc1)C(=O)N[C@@H](C)C(=O)N[C@@H](CCCCN)C(=O)N[C@@H](C)C(=O)N[C@@H](CCCCN)C(=O)N[C@@H](C)C(N)=O [compound 95] | >50 µg/mL | >50 µg/mL | >50 µg/mL | >50 µg/mL |
| CC(C)C[C@H](NC(=O)[C@H](CCCCN)NC(=O)[C@H](CC(C)C)NC(=O)[C@H](CCCCN)NC(=O)[C@H](C)NC(=O)[C@H](CC(C)C)NC(=O)[C@H](CCCCN)NC(=O)[C@H](C)NC(=O)[C@H](CC(C)C)NC(=O)[C@H](CC(C)C)NC(=O)[C@H](CCCCN)NC(=O)[C@H](C)NC(=O)[C@@H](N)Cc1ccccc1)C(N)=O [compound 66] | 30 µg/mL (≈ 20.6 µM) | 40 µg/mL (≈ 27.5 µM) | 40 µg/mL (≈ 27.5 µM) | 50 µg/mL (≈ 34.3 µM) |
| FAKLFAKLAKKFAL-NH2 [compound 121] | INACT | 50 µg/mL | INACT | INACT |
| CC(C)C[C@H](NC(=O)CNC(=O)[C@H](CCCCN)NC(=O)[C@H](CCCCN)NC(=O)[C@H](C)NC(=O)[C@H](CC(C)C)NC(=O)[C@H](CCCCN)NC(=O)[C@H](C)NC(=O)[C@H](CC(C)C)NC(=O)[C@H](CC(C)C)NC(=O)[C@H](CCCCN)NC(=O)[C@H](C)NC(=O)[C@@H](N)Cc1ccccc1)C(N)=O [compound 152] | >250 µg/mL | 50 µg/mL (≈ 35.7 µM) | 150 µg/mL (≈ 107 µM) | 150 µg/mL (≈ 107 µM) |
| FAKLWAKLAFGKGIGKVGKKLL-NH2 [compound 135] | INACT | 25 µg/mL | INACT | 40 µg/mL |
| FAKAIAKIAFGKGIGKVGKKLL-NH2 [compound 134] | INACT | INACT | INACT | INACT |
| CC(C)C[C@H](NC(=O)[C@H](CCCCN)NC(=O)[C@H](C)NC(=O)[C@H](CC(C)C)NC(=O)[C@H](CC(C)C)NC(=O)[C@H](CCCCN)NC(=O)[C@H](C)NC(=O)[C@@H](N)Cc1ccccc1)C(=O)N[C@@H](C)C(=O)N[C@@H](CCCCN)C(=O)N[C@@H](CCCCN)C(N)=O [compound 151] | >250 µg/mL | 100 µg/mL (≈ 81.3 µM) | >250 µg/mL | >250 µg/mL |
| CC(C)C[C@H](NC(=O)[C@H](CCCCN)NC(=O)[C@H](C)NC(=O)[C@H](CCCCN)NC(=O)[C@H](C)NC(=O)[C@H](CC(C)C)NC(=O)[C@H](CCCCN)NC(=O)[C@H](C)NC(=O)[C@H](CC(C)C)NC(=O)[C@H](CC(C)C)NC(=O)[C@H](CCCCN)NC(=O)[C@H](C)NC(=O)[C@@H](N)Cc1ccccc1)C(N)=O [compound 65] | >55 µg/mL | >50 µg/mL | >55 µg/mL | >50 µg/mL |

— patent publication US20050209157A1, “Short bioactive peptides and methods for their use” (priority 2001, published 2005)
